{"source": "paper PMC4370687", "about": "“Functional Characterization of the 1,5-Benzodiazepine Clobazam and Its Major Active Metabolite N-Desmethylclobazam at Human GABAA Receptors Expressed in Xenopus laevis Oocytes” (PLoS ONE, 2015)", "assay_in_all_cases": "GABA concentration-response, TEVC electrophysiology in Xenopus oocytes", "type_in_all_cases": "cell-based", "details_in_all_cases": "GABA as agonist", "key": {"human α2β2γ2S GABAAR": {"biological_target": "T1, human α2β2γ2S GABAAR (Homo sapiens, UniProt P18507+P47869+P47870)", "T1 construct": "expressed in transfected cells; host or cells: Xenopus laevis oocytes (cRNA injection, α:β2:γ2S 1:1:1; 1:1:5 in the zolpidem comparison)", "T1 sequence (P47869 29-451)": "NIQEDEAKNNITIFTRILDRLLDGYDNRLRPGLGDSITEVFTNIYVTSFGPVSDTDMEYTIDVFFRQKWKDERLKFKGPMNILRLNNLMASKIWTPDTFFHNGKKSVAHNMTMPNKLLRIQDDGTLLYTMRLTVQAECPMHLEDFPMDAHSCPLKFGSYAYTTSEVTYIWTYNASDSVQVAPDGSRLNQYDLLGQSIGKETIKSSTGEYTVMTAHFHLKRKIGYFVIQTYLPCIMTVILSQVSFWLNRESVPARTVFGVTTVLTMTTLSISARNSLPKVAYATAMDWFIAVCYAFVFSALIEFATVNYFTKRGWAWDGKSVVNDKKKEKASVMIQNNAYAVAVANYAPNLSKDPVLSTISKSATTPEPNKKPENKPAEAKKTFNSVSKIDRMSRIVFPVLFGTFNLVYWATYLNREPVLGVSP", "T1 sequence (P47870 26-474 isoform P47870-1 limits assumed)": "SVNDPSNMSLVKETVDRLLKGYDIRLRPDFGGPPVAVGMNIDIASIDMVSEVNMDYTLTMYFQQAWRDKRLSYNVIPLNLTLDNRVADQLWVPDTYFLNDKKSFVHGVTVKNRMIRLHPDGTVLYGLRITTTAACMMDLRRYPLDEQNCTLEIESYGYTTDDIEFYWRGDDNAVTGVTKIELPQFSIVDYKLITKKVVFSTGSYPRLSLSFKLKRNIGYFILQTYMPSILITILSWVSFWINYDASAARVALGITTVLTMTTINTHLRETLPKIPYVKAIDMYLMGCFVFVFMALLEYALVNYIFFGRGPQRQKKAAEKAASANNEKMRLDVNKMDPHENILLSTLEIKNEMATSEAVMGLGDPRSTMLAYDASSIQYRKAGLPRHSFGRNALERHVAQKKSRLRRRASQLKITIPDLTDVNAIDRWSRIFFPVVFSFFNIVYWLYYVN", "T1 sequence (P18507 40-467 isoform P18507-1 limits assumed)": "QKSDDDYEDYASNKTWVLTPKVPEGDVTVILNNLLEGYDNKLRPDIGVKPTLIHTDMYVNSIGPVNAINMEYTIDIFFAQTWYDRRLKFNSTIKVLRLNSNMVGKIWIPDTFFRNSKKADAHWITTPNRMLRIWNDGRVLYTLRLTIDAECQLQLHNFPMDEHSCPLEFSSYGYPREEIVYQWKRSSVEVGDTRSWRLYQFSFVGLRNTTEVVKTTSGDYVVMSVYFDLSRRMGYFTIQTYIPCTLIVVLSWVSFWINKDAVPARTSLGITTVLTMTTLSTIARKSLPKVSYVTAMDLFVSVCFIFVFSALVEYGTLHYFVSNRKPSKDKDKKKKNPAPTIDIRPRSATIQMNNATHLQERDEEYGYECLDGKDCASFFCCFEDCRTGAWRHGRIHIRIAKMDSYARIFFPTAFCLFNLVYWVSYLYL", "method": "(§1) The cDNAs encoding the human GABAAR subunits were linearized with DraIII (α1, α2, α3, α5 and α6), SmaI (β2 and γ2S) or StuI (δ) and used as templates for in vitro cRNA synthesis using the T7 mMESSAGE mMACHINE High Yield Capped RNA Transcription Kit (Life Technologies Corporation, Carlsbad, CA, USA). Except where otherwise indicated, Xenopus oocytes were injected with 36.8 nL cRNA solution encoding for α1β2γ2S, α2β2γ2S, α3β2γ2S and α5β2γ2S GABAARs in a 1:1:1 α:β2:γ2S ratio (2.7 ng/μL of each subunit), with 46 nL cRNA solution encoding for the α6β2δ GABAAR in a 10:1:10 α6:β2:δ ratio (1:0.1:1 μg/μL), with 18 nL cRNA solution encoding for the α1β2 GABAAR in a 1:1 α1:β2 ratio (0.6:0.6 μg/μL), or with 46 nL cRNA encoding for α6β2 (α6:β2 ratio: 1:0.1 μg/μL). Following injection, the oocytes were incubated at 18°C in modified Barth’s solution [88 mM NaCl, 1 mM KCl, 15 mM HEPES (pH 7.5), 2.4 mM NaHCO3, 0.41 mM CaCl2, 0.82 mM MgSO4, 0.3 mM Ca(NO3)2, 100 U/mL penicillin and 100 μg/mL streptomycin]. Electrophysiological recordings were performed 3 to 6 days after injection.\n(§2) Electrophysiological recordings were performed using the TEVC technique on Xenopus oocytes expressing various GABAAR combinations using a protocol adapted from previous studies. […] Cells were impaled with agar-plugged 0.5–1 MΩ electrodes containing 3 M KCl and voltage clamped at −70 mV by a Gene Clamp 500B amplifier (Axon Instruments, Union City, CA, USA) and recorded with pClamp 10 (Windows version, Molecular Devices, LLC, Sunnyvale, CA, USA). The oocytes were continuously perfused with Ringer buffer, and the test compounds were applied in the perfusate. Experiments were performed at room temperature and each data point represents the mean ± S.E.M. value of recordings performed on at least two oocytes from at least two different batches of oocytes. The recorded baseline-to-peak current amplitudes were analyzed using Clampfit 10.1 (Axon Instruments, Union City, CA, USA). […]"}, "human α3β2γ2S GABAAR": {"biological_target": "T2, human α3β2γ2S GABAAR (Homo sapiens, UniProt P18507+P34903+P47870)", "T2 construct": "expressed in transfected cells; host or cells: Xenopus laevis oocytes (cRNA injection, 1:1:1)", "T2 sequence (P34903 29-492)": "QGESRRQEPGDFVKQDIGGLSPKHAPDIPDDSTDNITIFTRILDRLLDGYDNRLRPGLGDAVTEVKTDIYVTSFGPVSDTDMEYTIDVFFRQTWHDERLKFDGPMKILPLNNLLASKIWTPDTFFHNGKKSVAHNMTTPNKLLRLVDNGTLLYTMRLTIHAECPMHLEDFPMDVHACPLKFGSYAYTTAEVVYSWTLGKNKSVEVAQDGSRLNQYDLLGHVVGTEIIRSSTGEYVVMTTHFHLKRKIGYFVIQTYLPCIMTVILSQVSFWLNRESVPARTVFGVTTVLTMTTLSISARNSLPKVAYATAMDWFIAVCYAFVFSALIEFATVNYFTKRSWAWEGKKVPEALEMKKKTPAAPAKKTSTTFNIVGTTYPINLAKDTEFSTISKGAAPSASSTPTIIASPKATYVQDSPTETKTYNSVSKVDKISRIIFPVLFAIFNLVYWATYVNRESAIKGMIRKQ", "T2 sequence (P47870 26-474 isoform P47870-1 limits assumed)": "as the sequence (P47870 26-474 isoform P47870-1 limits assumed) above", "T2 sequence (P18507 40-467 isoform P18507-1 limits assumed)": "as the sequence (P18507 40-467 isoform P18507-1 limits assumed) above", "method": "as §1, §2"}, "human α5β2γ2S GABAAR": {"biological_target": "T3, human α5β2γ2S GABAAR (Homo sapiens, UniProt P18507+P31644+P47870)", "T3 construct": "expressed in transfected cells; host or cells: Xenopus laevis oocytes (cRNA injection, 1:1:1)", "T3 sequence (P31644 32-462)": "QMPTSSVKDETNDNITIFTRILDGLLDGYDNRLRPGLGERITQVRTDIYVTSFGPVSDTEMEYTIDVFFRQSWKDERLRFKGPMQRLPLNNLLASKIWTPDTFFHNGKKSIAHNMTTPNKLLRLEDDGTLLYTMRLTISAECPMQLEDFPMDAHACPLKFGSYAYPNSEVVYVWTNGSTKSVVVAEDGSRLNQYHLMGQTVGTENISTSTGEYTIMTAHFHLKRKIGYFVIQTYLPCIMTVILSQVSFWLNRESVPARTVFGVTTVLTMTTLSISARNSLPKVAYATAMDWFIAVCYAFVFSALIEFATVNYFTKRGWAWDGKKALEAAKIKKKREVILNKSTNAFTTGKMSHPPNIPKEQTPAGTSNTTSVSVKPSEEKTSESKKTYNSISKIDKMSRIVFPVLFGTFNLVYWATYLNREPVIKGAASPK", "T3 sequence (P47870 26-474 isoform P47870-1 limits assumed)": "as the sequence (P47870 26-474 isoform P47870-1 limits assumed) above", "T3 sequence (P18507 40-467 isoform P18507-1 limits assumed)": "as the sequence (P18507 40-467 isoform P18507-1 limits assumed) above", "method": "as §1, §2"}, "human α6β2 GABAAR": {"biological_target": "T4, human α6β2 GABAAR (Homo sapiens, UniProt P47870+Q16445)", "T4 construct": "expressed in transfected cells; host or cells: Xenopus laevis oocytes (cRNA injection)", "T4 sequence (Q16445 20-453)": "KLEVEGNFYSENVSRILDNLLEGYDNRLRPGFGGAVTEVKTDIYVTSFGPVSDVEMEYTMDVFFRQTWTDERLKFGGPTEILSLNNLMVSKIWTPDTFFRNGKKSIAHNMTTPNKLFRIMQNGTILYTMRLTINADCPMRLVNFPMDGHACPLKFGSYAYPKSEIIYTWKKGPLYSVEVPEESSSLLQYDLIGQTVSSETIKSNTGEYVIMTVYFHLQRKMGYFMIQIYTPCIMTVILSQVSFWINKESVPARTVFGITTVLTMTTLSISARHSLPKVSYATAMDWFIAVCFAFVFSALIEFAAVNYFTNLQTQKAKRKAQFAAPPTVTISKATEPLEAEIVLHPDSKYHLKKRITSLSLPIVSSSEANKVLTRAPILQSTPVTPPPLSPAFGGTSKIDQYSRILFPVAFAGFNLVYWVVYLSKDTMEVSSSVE", "T4 sequence (P47870 26-474 isoform P47870-1 limits assumed)": "as the sequence (P47870 26-474 isoform P47870-1 limits assumed) above", "method": "as §1, with “Following injection, the oocytes were incubated at 18°C in modified Barth’s solution [88 mM NaCl, 1 mM KCl, 15 mM HEPES (pH 7.5), 2.4 mM NaHCO3, 0.41 mM CaCl2, 0.82 mM MgSO4, 0.3 mM Ca(NO3)2, 100 U/mL penicillin and 100 μg/mL streptomycin]. Electrophysiological recordings were performed 3 to 6 days after injection.” left out\nas §2, with “The oocytes were continuously perfused with Ringer buffer, and the test compounds were applied in the perfusate. Experiments were performed at room temperature and each data point represents the mean ± S.E.M. value of recordings performed on at least two oocytes from at least two different batches of oocytes.” left out"}, "human α1β2γ2S GABAAR": {"biological_target": "human α1β2γ2S GABAAR (Homo sapiens, UniProt P14867+P18507+P47870)", "sequence (P14867 28-456)": "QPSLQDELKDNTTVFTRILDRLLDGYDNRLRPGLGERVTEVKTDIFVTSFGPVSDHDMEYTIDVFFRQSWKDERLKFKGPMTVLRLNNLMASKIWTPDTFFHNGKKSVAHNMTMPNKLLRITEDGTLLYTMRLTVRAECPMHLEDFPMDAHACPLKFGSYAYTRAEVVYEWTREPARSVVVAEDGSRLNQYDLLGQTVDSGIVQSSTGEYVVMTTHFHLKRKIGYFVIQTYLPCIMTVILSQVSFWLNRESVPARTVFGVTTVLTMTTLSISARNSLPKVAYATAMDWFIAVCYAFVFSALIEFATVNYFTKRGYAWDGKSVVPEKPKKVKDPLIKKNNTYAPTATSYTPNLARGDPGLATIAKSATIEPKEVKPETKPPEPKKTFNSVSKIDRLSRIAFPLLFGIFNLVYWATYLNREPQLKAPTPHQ", "sequence (P47870 26-474 isoform P47870-1 limits assumed)": "as the sequence (P47870 26-474 isoform P47870-1 limits assumed) above", "sequence (P18507 40-467 isoform P18507-1 limits assumed)": "as the sequence (P18507 40-467 isoform P18507-1 limits assumed) above", "design": "expressed in transfected cells; host or cells: Xenopus laevis oocytes (cRNA injection, α:β2:γ2S 1:1:1)", "method": "as §1, with “Following injection, the oocytes were incubated at 18°C in modified Barth’s solution [88 mM NaCl, 1 mM KCl, 15 mM HEPES (pH 7.5), 2.4 mM NaHCO3, 0.41 mM CaCl2, 0.82 mM MgSO4, 0.3 mM Ca(NO3)2, 100 U/mL penicillin and 100 μg/mL streptomycin]. Electrophysiological recordings were performed 3 to 6 days after injection.” left out\nas §2, with “The oocytes were continuously perfused with Ringer buffer, and the test compounds were applied in the perfusate. Experiments were performed at room temperature and each data point represents the mean ± S.E.M. value of recordings performed on at least two oocytes from at least two different batches of oocytes.” left out"}}, "data": [{"smiles": "NCCCC(=O)O", "note": "[GABA, γ-aminobutyric acid]", "values": [{"measurement": "Hill slope nH ± S.E.M.", "setting": "human α2β2γ2S GABAAR", "value": "1.44 ± 0.07"}, {"measurement": "Hill slope nH ± S.E.M.", "setting": "human α3β2γ2S GABAAR", "value": "1.22 ± 0.05"}, {"measurement": "Hill slope nH ± S.E.M.", "setting": "human α5β2γ2S GABAAR", "value": "1.19 ± 0.08"}, {"measurement": "Hill slope nH ± S.E.M.", "setting": "human α6β2 GABAAR", "value": "0.89 ± 0.09"}, {"measurement": "Hill slope nH ± S.E.M.", "setting": "human α1β2γ2S GABAAR", "value": "1.19 ± 0.05"}]}]}
